Active and inactive are the calls of the source.
Legend:
Bcl-2-related protein A1 = molecular target: T1, Bcl-2-related protein A1 (Mus musculus, UniProt Q07440); assay type: functional;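 note: confirmatory dose–response counterscreen on Bfl-1, used to check hits from a UBC13 polyubiquitin inhibitor campaign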
T1 sequence (Q07440 whole entry): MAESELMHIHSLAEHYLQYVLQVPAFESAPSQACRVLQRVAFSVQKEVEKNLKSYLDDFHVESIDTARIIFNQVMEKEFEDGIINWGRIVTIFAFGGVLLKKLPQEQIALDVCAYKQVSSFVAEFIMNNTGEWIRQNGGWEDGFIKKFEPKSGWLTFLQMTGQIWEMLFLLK

[1] = molecular target: T2, Ubiquitin-conjugating enzyme E2 N (Homo sapiens, UniProt P61088); assay type: functional
T2 sequence (P61088 whole entry): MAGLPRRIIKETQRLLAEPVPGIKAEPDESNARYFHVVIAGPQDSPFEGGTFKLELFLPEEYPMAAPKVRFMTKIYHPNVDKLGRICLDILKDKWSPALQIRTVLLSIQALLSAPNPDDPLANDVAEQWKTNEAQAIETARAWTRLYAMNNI

[2] = molecular target: T2, Ubiquitin-conjugating enzyme E2 N; assay type: functional; remark: listed apart in the source
[3] = molecular target: T3, Apoptotic protease-activating factor 1 (Homo sapiens, UniProt O14727); assay type: functional
T3 sequence (O14727 whole entry): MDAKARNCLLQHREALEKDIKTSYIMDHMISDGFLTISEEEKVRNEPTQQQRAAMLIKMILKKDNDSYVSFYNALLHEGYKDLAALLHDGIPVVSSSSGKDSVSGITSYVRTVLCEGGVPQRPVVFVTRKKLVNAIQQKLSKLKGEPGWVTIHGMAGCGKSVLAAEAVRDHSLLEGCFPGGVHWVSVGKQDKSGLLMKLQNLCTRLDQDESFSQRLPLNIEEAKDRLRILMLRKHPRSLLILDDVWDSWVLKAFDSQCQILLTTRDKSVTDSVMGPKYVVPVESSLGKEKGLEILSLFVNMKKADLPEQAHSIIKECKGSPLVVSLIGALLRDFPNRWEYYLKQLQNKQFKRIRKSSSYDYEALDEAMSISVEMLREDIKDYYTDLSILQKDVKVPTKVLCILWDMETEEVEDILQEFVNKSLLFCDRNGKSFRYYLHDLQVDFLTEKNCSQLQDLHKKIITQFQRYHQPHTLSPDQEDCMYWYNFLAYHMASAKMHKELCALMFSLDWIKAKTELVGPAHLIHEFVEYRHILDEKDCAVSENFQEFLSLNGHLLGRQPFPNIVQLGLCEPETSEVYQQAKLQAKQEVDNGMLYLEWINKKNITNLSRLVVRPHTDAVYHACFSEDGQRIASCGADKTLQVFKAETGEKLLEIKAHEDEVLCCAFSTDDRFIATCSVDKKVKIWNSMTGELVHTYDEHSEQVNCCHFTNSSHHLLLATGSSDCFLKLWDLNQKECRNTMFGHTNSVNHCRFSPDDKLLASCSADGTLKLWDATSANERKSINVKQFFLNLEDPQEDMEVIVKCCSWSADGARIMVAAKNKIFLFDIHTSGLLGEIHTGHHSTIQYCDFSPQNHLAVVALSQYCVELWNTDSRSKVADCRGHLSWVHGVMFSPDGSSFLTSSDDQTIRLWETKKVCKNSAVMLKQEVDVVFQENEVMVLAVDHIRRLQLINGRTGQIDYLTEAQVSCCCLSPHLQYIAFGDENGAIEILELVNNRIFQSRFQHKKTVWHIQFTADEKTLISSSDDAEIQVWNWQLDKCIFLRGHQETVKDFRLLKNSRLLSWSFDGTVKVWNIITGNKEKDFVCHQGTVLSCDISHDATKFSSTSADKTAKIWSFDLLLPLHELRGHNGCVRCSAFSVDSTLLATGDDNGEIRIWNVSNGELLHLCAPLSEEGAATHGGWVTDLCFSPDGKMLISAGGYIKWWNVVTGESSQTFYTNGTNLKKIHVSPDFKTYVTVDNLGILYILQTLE

Vero = assay: cells; assay type: functional, cell-based; conditions: Chlorocebus sabaeus
[4] = molecular target: Beta-2 adrenergic receptor (Homo sapiens, UniProt P07550); assay: beta2AR agonists driving receptor internalization, dose response, cell-based, FAP fluorogen, flow cytometry, cherry pick 1 (AID 588763); assay type: functional
Sequence of Beta-2 adrenergic receptor (P07550 whole entry): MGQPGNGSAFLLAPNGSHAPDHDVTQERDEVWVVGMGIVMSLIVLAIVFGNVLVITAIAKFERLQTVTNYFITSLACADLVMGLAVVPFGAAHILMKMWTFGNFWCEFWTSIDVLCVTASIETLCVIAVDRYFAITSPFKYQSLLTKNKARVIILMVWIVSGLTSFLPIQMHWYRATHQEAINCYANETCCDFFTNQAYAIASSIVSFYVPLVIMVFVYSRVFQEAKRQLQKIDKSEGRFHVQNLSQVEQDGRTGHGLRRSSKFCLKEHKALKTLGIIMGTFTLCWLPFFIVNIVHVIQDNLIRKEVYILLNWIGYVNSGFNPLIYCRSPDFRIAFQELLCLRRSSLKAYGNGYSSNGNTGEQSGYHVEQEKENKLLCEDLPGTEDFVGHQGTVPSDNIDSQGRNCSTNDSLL

[5] = molecular target: T4, DNA repair and recombination protein RAD54-like (Homo sapiens, UniProt Q92698); assay: inhibitors of human RAD54 branch migration, confirmation, biochemical, fluorescence, cherry-picked samples, dose series (AID 651657); assay type: functional
T4 sequence (Q92698 whole entry): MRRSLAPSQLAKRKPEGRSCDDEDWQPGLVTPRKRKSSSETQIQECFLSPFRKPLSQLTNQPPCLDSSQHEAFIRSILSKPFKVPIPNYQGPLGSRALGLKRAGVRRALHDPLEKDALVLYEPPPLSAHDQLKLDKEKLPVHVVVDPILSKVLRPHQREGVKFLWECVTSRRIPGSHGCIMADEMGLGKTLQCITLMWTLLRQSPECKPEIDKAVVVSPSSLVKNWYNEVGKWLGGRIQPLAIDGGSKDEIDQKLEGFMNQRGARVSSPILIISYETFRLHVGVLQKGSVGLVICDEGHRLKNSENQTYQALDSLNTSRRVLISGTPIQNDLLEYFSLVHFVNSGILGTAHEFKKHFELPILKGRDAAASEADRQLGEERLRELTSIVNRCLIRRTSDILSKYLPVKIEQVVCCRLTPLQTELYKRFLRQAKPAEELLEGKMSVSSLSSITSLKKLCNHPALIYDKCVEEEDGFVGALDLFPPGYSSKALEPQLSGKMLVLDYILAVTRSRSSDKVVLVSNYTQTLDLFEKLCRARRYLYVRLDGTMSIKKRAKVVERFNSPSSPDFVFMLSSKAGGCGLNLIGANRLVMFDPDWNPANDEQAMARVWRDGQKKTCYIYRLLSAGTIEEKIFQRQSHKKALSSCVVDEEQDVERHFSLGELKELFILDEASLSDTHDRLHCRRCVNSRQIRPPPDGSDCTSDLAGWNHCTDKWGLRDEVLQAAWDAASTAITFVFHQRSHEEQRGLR

[6] = molecular target: T5, Rac GTPase-activating protein 1 (Homo sapiens, UniProt Q9H0H5); assay: MgcRacGAP GTPase-activating activity inhibitors, confirmation, biochemical, ADP Hunter fluorescence, primary and confirmatory (AID 624330); assay type: functional
T5 sequence (Q9H0H5 whole entry): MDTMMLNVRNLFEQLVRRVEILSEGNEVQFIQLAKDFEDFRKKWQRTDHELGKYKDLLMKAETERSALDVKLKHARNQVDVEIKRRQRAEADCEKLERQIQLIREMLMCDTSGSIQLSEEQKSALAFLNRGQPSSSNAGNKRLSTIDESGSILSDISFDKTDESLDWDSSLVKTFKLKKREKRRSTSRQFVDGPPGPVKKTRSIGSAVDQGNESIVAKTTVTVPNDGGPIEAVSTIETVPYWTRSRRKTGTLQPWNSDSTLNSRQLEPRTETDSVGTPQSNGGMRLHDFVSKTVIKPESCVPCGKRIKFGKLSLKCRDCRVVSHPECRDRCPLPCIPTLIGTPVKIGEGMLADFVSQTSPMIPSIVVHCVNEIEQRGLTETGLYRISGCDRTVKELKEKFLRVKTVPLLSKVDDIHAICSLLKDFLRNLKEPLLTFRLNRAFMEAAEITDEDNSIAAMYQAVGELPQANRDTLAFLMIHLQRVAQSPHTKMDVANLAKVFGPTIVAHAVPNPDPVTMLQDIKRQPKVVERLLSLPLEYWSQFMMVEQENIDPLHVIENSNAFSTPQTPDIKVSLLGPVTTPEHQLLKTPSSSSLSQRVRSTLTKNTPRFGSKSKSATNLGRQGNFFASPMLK

COc1cc2nc(N3CCNCC3)nc(N)c2cc1OC
IC50 (Bcl-2-related protein A1): 11.1 µM (active)
IC50 [1]: 1.5 µM (active)
IC50 [2]: 873 nM (active)
IC50 [3]: 31.5 µM (active)
IC50 (Vero): 22.4 µM (active)
EC50 [4]: 8.61 µM (inactive)
AC50 [5]: 1.49 µM (active)
IC50 [6]: 63.1 µM (active)

Reference: ChEMBL document CHEMBL1201862, “PubChem BioAssay data set” (2004)
